Assay results published in US6872706B2, “Glucopyranosyloxybenzylbenzene derivatives and medicinal compositions containing the same” (Kissei Pharmaceutical Co., Ltd., priority 2000, dated 2005).

Key:
human SGLT2 = target: T1, human SGLT2 (Homo sapiens, UniProt P31639, I433V); assay: Assay for inhibitory effect on human SGLT2 activity (uptake of methyl-α-D-glucopyranoside in COS-7 cells expressing transiently human SGLT2); assay type: cell-based; conditions: inhibition of methyl-α-D-(U-14C)glucopyranoside uptake, COS-7 cells expressing transiently human SGLT2, 37° C., 2 hours
T1 construct: expressed in transfected cells; host or cells: COS-7 cells (RIKEN CELL BANK RCB0539), transient, electroporation
T1 sequence (P31639 1-672 I433V): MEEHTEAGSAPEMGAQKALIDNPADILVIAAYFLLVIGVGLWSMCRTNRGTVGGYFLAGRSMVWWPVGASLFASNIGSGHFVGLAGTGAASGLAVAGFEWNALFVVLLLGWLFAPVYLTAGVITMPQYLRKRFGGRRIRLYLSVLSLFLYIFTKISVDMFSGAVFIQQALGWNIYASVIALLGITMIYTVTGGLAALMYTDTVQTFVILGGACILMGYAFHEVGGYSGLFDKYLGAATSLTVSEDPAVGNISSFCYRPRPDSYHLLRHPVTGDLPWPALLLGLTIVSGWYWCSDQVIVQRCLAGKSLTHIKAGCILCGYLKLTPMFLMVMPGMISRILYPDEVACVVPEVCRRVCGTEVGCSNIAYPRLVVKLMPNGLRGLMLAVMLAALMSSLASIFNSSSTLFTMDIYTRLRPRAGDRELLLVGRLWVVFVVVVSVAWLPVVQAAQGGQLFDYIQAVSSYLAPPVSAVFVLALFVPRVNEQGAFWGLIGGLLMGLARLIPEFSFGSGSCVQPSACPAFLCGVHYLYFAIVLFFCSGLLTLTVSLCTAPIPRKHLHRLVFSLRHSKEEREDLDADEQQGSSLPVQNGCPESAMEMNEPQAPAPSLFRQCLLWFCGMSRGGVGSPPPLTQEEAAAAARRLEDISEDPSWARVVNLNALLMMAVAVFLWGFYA
Method: Assay for Inhibitory Effect on Human SGLT2 Activity
1) Construction of the Plasmid Vector Expressing Human SGLT2
Preparation of the cDNA library for PCR amplification was performed by reverse transcription of a total RNA deprived from human kidney (Ori gene) with oligo dT as the primer, using […] Preamplification System (Gibco-BRL: LIFE TECHNOLOGIES). […] The amplified DNA fragment was ligated into pCR-Blunt (Invitrogen), a vector for cloning, according to standard method of the kit. The competent cell, Escherichia coli HB101 (Toyobo), was transformed according to usual method and then selection of the transformants was performed on the LB agar medium containing 50 μg/mL of kanamycin. After the plasmid DNA was extracted and purified from the one of the transformants, amplifying of the DNA fragment coding for human SGLT2 was performed by the Pfu DNA Polymerase (Stratagene)-used PCR reaction, in which the following oligo nucleotides 0714F and 0715R, presented as Sequence Numbers 3 and 4 respectively, were used as the primers. The amplified DNA fragment was digested with restriction enzymes, Xho I and Hind III, and then purified with Wizard Purification System (Promega). This purified DNA fragment was inserted at the corresponding multi-cloning sites of pcDNA3.1 (−) Myc/His-B (Invitrogen), a vector for expressing of fusion protein. The competent cell, Escherichia coli HB101 (Toyobo), was transformed according to usual method and then selection of the transformant was performed on the LB agar medium containing 100 μg/mL of ampicillin. After the plasmid DNA was extracted and purified from this transformant, the base sequence of the DNA fragment inserted at the multi-cloning sites of pcDNA3.1 (−) Myc/His-B was analyzed. […] This plasmid vector expressing human SGLT2 in which the peptide presented as Sequence Number 5 is fused to the carboxyl terminal alanine residue was designated KL29.
2) Preparation of the Cells Expressing Transiently Human SGLT2
KL29, the plasmid coding human SGLT2, was transfected into COS-7 cells (RIKEN CELL BANK RCB0539) by electroporation. Electroporation was performed with GENE PULSER II (Bio-Rad Laboratories) under the condition: 0.290 kV, 975 μF, 2×10^6 cells of COS-7 cell and 20 μg of KL29 in 500 μL of OPTI-MEM I medium (Gibco-BRL: LIFE TECHNOLOGIES) in the 0.4 cm type cuvette. After the gene transfer, the cells were harvested by centrifugation and resuspended with OPTI-MEM I medium (1 mL/cuvette). To each well in 96-wells plate, 125 μL of this cell suspension was added. After overnight culture at 37° C. under 5% CO2, 125 μL of DMEM medium which is containing 10% of fetal bovine serum (Sanko Jyunyaku), 100 units/mL sodium penicillin G (Gibco-BRL: LIFE TECHNOLOGIES) and 100 μg/mL streptomycin sulfate (Gibco-BRL: LIFE TECHNOLOGIES) was added to each well. After a culture until the following day, these cells were used for the measurement of the inhibitory activity against the uptake of methyl-α-D-glucopyranoside.
3) Measurement of the Inhibitory Activity Against the Uptake of Methyl-α-D-Glucopyranoside
After a test compound was dissolved in dimethyl sulfoxide and diluted with the uptake buffer (a pH 7.4 buffer containing 140 mM sodium chloride, 2 mM potassium chloride, 1 mM calcium chloride, 1 mM magnesium chloride, 5 mM methyl-α-D-glucopyranoside, 10 mM 2-[4-(2-hydroxyethyl)-1-piperazinyl]ethane sulfonic acid and 5 mM tris (hydroxymethyl) aminomethane), each diluent was used as test sample for measurement of the inhibitory activity.

[1] = Assay for the facilitatory effect on urinary glucose excretion; assay type: in vivo; conditions: non-fasted male SD rats, oral, urine collected 24 hours
Method: Assay for the Facilitatory Effect on Urinary Glucose Excretion
As experimental animal, non-fasted SD rats (SLC. Inc., male, 8 weeks of age, 270-320 g) were used. A test compound was suspended in 0.5% sodium carboxymethylcellulose solution and 0.3, 1 and 3 mg/mL suspension were prepared. Adler the body weights of rats were measured, the test suspension was orally administered at the dose of 10 mL/kg (3, 10 and 30 mg/kg). For the control, just only 0.5% sodium carboxymethylcellulose solution was orally administered at the dose of 10 mL/kg. The oral administration was performed with gastric tube for rat and 2.5 mL syringe. The head count in one group was 5 or 6. Collection of urine was performed in metabolic cage after the oral administration was finished. The sampling time for collection of urine was 24 hours after the oral administration. After collection of urine was finished, the urine volume was recorded and the urinary glucose concentration was measured. The glucose concentration was measured with a kit for laboratory test: Glucose B-Test WAKO (Wako Pure Chemical Industries, Ltd.). The amount of urinary glucose excretion in 24 hours per 200 g of body weight was calculated from urine volume, urinary glucose concentration and body weight.

Acute toxicity test = assay type: in vivo; conditions: male ICR mice, oral 600 mg/kg, until 24 hours after the administration, 5 animals in each group
Method: Four weeks old male ICR mice (CLEA JAPAN, INC. 22-28 g, 5 animals in each group) were fasted for 4 hours, and 60 mg/mL of a suspension of a test compound in 0.5% sodium carboxymethylcellulose solution was orally administered at the dose of 10 mL/kg(600 mg/kg).

Row | SMILES | IC50 (human SGLT2) | other results
1 | CCc1ccc(Cc2ccccc2O[C@@H]2O[C@H](CO)[C@@H](O)[C@H](O)[C@H]2O)cc1 [Reference Example 13, 2-(4-Ethylbenzyl)phenyl β-D-glucopyranoside] | 140 nM | 
2 | CCOC(=O)OC[C@H]1O[C@@H](Oc2ccccc2Cc2ccc(OC)cc2)[C@H](O)[C@@H](O)[C@@H]1O [Example 1, 2-(4-Methoxybenzyl)phenyl 6-O-ethoxycarbonyl-β-D-glucopyranoside] |  | Amount of Urinary Glucose Excretion ([1]; dose 3 mg/kg): 52 mg/24 hours · 200 g body weight; Amount of Urinary Glucose Excretion ([1]; dose 10 mg/kg): 239 mg/24 hours · 200 g body weight; Amount of Urinary Glucose Excretion ([1]; dose 30 mg/kg): 513 mg/24 hours · 200 g body weight; Death number (Acute toxicity test): 0/5
3 | COc1ccc(Cc2ccccc2O[C@@H]2O[C@H](CO)[C@@H](O)[C@H](O)[C@H]2O)cc1 [Reference Example 11, 2-(4-Methoxybenzyl)phenyl β-D-glucopyranoside] | 350 nM | 
4 | CC(C)Oc1ccc(Cc2ccccc2O[C@@H]2O[C@H](CO)[C@@H](O)[C@H](O)[C@H]2O)cc1 [Reference Example 16, 2-(4-Isopropoxybenzy)phenyl β-D-Glucopyranoside] | 370 nM | 
5 | CC(C)Cc1ccc(Cc2ccccc2O[C@@H]2O[C@H](CO)[C@@H](O)[C@H](O)[C@H]2O)cc1 [Reference Example 14, 2-(4-Isobutylbenzyl)phenyl β-D-glucopyranoside] | 500 nM | 

Continued by falling IC50 (human SGLT2), values first:

Row | IC50 (human SGLT2) | SMILES | other results
6 | 330 nM | CCOc1ccc(Cc2ccccc2O[C@@H]2O[C@H](CO)[C@@H](O)[C@H](O)[C@H]2O)cc1 [Reference Example 15, 2-(4-Ethoxybenzyl)phenyl β-D-glucopyranoside] | 
7 | 110 nM | CCSc1ccc(Cc2ccccc2O[C@@H]2O[C@H](CO)[C@@H](O)[C@H](O)[C@H]2O)cc1 [Reference Example 17, 2-(4-Ethylthiobenzyl)phenyl β-D-glucopyranoside] | 
